Assays:
[1] = molecular target: T1, Thyroid hormone receptor alpha (Homo sapiens, UniProt P10827)
T1 sequence (P10827 whole entry): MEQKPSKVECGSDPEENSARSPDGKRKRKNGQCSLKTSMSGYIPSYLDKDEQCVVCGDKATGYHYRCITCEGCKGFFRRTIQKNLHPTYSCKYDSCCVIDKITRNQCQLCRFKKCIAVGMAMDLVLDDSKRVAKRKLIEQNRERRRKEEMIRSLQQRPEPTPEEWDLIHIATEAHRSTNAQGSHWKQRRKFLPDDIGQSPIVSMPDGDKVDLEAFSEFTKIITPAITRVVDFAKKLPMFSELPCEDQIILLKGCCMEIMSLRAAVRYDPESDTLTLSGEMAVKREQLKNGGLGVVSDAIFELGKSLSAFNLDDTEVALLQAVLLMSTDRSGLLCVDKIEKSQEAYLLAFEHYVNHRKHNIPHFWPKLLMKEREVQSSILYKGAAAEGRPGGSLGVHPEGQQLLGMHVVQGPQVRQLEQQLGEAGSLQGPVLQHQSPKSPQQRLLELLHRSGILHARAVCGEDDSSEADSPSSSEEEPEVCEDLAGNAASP
Description: Effect on human TRalpha transactivation activity in HeLa cells by luciferase reporter assay

[2] = molecular target: T2, Thyroid hormone receptor beta (Homo sapiens, UniProt P10828)
T2 sequence (P10828 whole entry): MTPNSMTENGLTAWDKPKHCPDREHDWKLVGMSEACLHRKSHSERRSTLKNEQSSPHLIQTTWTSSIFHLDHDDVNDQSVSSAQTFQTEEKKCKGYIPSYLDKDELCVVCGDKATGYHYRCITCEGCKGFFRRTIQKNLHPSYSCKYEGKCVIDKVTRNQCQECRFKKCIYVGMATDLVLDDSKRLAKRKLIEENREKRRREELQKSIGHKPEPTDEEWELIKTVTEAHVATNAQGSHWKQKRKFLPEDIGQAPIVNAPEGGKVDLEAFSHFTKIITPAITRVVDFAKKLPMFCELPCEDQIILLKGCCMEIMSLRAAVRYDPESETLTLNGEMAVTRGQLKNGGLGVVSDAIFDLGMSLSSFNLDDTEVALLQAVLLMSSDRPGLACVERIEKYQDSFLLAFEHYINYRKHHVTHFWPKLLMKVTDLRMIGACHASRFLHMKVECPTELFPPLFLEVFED

[3] = molecular target: T1, Thyroid hormone receptor alpha; remark: listed apart in the source
Description: Effect on human TRalpha transactivation activity in U2OS cells by luciferase reporter assay

[4] = molecular target: T2, Thyroid hormone receptor beta; remark: listed apart in the source
[5] = molecular target: T1, Thyroid hormone receptor alpha; remark: listed apart in the source
[6] = molecular target: T2, Thyroid hormone receptor beta; remark: listed apart in the source

Question: How did the EC50 [1] turn out when `CC(C)c1cc(Oc2c(Br)cc(CC3NC(=O)NC3=O)cc2Br)ccc1O` (centres undefined) was run?
Answer: 8.4 nM

Question: And the Kd [2]?
Answer: 18.4 nM

Question: What about the EC50 [3] of the same molecule?
Answer: 128 nM

Question: What about the EC50 [4] of the same molecule?
Answer: 421 nM

Question: And the Kd [5]?
Answer: 17 nM

Question: And the EC50 [6]?
Answer: 32 nM

Question: What does the source list for `O=C1NC(=O)C(Cc2cc(I)c(Oc3ccc(O)cc3)c(I)c2)N1` (centres undefined)?
Answer: EC50 [1]: > 10000 nM; Kd [2]: 2000 nM; EC50 [3]: > 20000 nM; EC50 [4]: > 20000 nM; Kd [5]: 1700 nM; EC50 [6]: > 10000 nM

Question: What does the source list for `CCc1cc(Oc2c(I)cc(CC3NC(=O)NC3=O)cc2I)ccc1O` (centres undefined)?
Answer: EC50 [1]: 10 nM; Kd [2]: 18 nM; EC50 [3]: 87 nM; EC50 [4]: 1400 nM; Kd [5]: 15 nM; EC50 [6]: 27 nM

Question: For `O=C1NC(=O)C(Cc2cc(I)c(Oc3ccc(O)c(I)c3)c(I)c2)N1` (centres undefined), which EC50 [1] is on record?
Answer: 21 nM

Question: What about the Kd [2] of the same molecule?
Answer: 36 nM

Question: And the EC50 [3]?
Answer: 105 nM

Question: And the EC50 [4]?
Answer: 2000 nM

Question: And the Kd [5]?
Answer: 24 nM

Question: What about the EC50 [6] of the same molecule?
Answer: 216 nM

Question: With `O=C1NC(=O)C(Cc2cc(I)c(Oc3ccc(O)c(Br)c3)c(I)c2)N1` (centres undefined) as the molecule, how does the EC50 [1] read?
Answer: 44 nM

Question: What about the Kd [2] of the same molecule?
Answer: 68 nM

Question: What about the EC50 [3] of the same molecule?
Answer: 206 nM

Question: And the EC50 [4]?
Answer: 5200 nM

Question: What about the Kd [5] of the same molecule?
Answer: 43 nM

Question: What about the EC50 [6] of the same molecule?
Answer: 530 nM

Question: What does the source list for `O=C1NC(=O)C(Cc2cc(I)c(Oc3ccc(O)c(C4CC4)c3)c(I)c2)N1` (centres undefined)?
Answer: EC50 [1]: 39 nM; Kd [2]: 49 nM; EC50 [3]: 145 nM; EC50 [4]: 2000 nM; Kd [5]: 25 nM; EC50 [6]: 100 nM

Question: For `COc1cc(Oc2c(I)cc(CC3NC(=O)NC3=O)cc2I)ccc1O` (centres undefined), which EC50 [1] is on record?
Answer: 42 nM

Question: What about the Kd [2] of the same molecule?
Answer: 119 nM

Question: And the EC50 [3]?
Answer: 870 nM

Question: And the EC50 [4]?
Answer: 8000 nM

Question: And the Kd [5]?
Answer: 82 nM

Question: What about the EC50 [6] of the same molecule?
Answer: 265 nM

Question: For `Cc1cc(Oc2c(I)cc(CC3NC(=O)NC3=O)cc2I)ccc1O` (centres undefined), which EC50 [1] is on record?
Answer: 27 nM

Question: What about the Kd [2] of the same molecule?
Answer: 53 nM

Question: And the EC50 [3]?
Answer: 146 nM

Question: What about the EC50 [4] of the same molecule?
Answer: 4000 nM

Question: What about the Kd [5] of the same molecule?
Answer: 42 nM

Question: What about the EC50 [6] of the same molecule?
Answer: 180 nM

Question: For `CC(C)c1cc(Oc2c(I)cc(CC3NC(=O)NC3=O)cc2I)ccc1O` (centres undefined), which EC50 [1] is on record?
Answer: 11 nM

Question: What about the Kd [2] of the same molecule?
Answer: 1.7 nM

Question: And the EC50 [3]?
Answer: 34 nM

Question: And the EC50 [4]?
Answer: 390 nM

Question: And the Kd [5]?
Answer: 1.2 nM

Question: What about the EC50 [6] of the same molecule?
Answer: 58 nM

Source: ChEMBL document CHEMBL1143954, “Characterization of thyroid hormone receptor alpha (TRalpha)-specific analogs with varying inner- and outer-ring substituents” (Bioorg Med Chem, 2008)
